According to paper PMC5055303, “Identification and Tumour-Binding Properties of a Peptide with High Affinity to the Disialoganglioside GD2” (PLoS ONE, 2016):

Experiments:
IMR32-induced xenografts [1] = assay: In vivo competition of phage tumour homing by co-injected peptide; design: species or system NMRI nude mice; settings: i.v. coinjection of 200 μg peptide and 1×10^11 pfu WHWRLPS-phage, 10 min; compared to injection of phage only; Fig 2D
Protocol: (§1) Wells were coated with GD3, GD2, GD1b, GT1b or BSA (10 μg/ well each). For competition experiments, coated wells were pre-incubated with serial dilutions ranging from 10 μg to 100 pg of an 11-mer GD2-specific-peptide in DPBS for one hour at room temperature on a shaker and the supernatant was removed. In total, 1 × 10^11 pfu of the amplified phages were incubated with DPBS/Tween20 (0.3%) for one hour at room temperature on a shaker. After washing with 10 volumes of DPBS/Tween20 (0.3%), bound phages were eluted by adding E. coli ER2738 and phage titer determination was performed as described above. Additionally, an in vivo competition assay was performed in tumour-bearing mice. Therefore, 200 μg of the GD2-specific peptide and 1×10^11 pfu of the phage encoding the same peptide were co-injected intravenously in three IMR32 tumour bearing mice per experiment. Tumours were subsequently harvested and the phage titers were determined as described above.

[2] = In vitro competition of WHWRLPS-phage binding to GD2 by soluble peptide; design: species or system human; settings: Fig 2B
Protocol: as §1

[3] = tested on: IMR32 neuroblastoma cells; assay: Cell proliferation / viability assay (MTT); type: cell-based, human; settings: 1 μg or 10 μg/ml peptide, maximum reduction after 96 h and 10 μg/ml vs. unrelated control peptide, quintuplicate, Fig 2A
Protocol: Proliferation of the human neuroblastoma cell line IMR32 upon peptide addition was evaluated using MTT assays as described. Peptides were used at a concentration of 1 μg and 10 μg per well in a total volume of 200 μl per well. For each time point and each peptide concentration, experiments and controls were performed in quintuplicate.

[4] = Phage binding assay on immobilized GD2; design: species or system human; settings: 10 μg GD2 per well, 1 × 10^11 pfu phage, DPBS/Tween20 (0.3%), 1 h room temperature, Fig 1A-C
Protocol: 96-well microtiter plates (Greiner, Frickenhausen, Germany) were coated with 10 μg GD2 or 10 μg GD1b per well for one hour at room temperature. Wells were then washed 3 times with DPBS/Tween20 (0.05%), blocked with BSA (1%)/DPBS/Tween20 (0.05%) for 1 hour at room temperature, washed again and subsequently filled with H2O. Plates were stored at 8°C until use. For in vitro selection, 2 x 10^11 plaque forming units (pfu) of the unselected M13 Ph.D.-7 phage display peptide library or the phage pool of the subsequent selection rounds was incubated with DPBS/Tween20 (0.1%, 0.2%, 0,3% or 0,4%) in a GD1b coated well for 1 hour at room temperature on a shaker. The phage solution was then transferred to a well containing GD2 and incubated for 1 hour at room temperature. After washing 10 times with DPBS/Tween20 (0.1%, 0.2%, 0,3% or 0,4%), bound phages were eluted by addition of E. coli ER2738 (OD600nm 0.4–0.5) for 30 minutes at 37°C. Phage amplification in 20 ml suspension containing E. coli ER2738 (hereafter referred to as phage pool) and titer determination were performed according to the manufacturer’s instructions with the modification that X-Gal was replaced by S-Gal and ferric ammonium citrate (both obtained from Sigma, Taufkirchen, Germany). For in vivo selection, 2 x 10^11 pfu of the phage pool of the 3rd selection round were injected into the tail vein of a mouse with a xenograft tumour induced by inoculation of IMR32 cells (2 x 10^7). Anaesthetised mice were perfused with DPBS 10 min after phage application. Tumours were explanted, homogenized in LB-medium and the phages were eluted with 900 μl of an E. coli ER2738 suspension at 37°C for 30 minutes in an incubator. Of this suspension, 10 μl were used for the determination of the phage titer. The residual volume was used for phage amplification in 20 ml E. coli ER2738 suspension according to the manufacturer’s instructions. Wells were coated with GD3, GD2, GD1b, GT1b or BSA (10 μg/ well each). For competition experiments, coated wells were pre-incubated with serial dilutions ranging from 10 μg to 100 pg of an 11-mer GD2-specific-peptide in DPBS for one hour at room temperature on a shaker and the supernatant was removed. In total, 1 × 10^11 pfu of the amplified phages were incubated with DPBS/Tween20 (0.3%) for one hour at room temperature on a shaker. After washing with 10 volumes of DPBS/Tween20 (0.3%), bound phages were eluted by adding E. coli ER2738 and phage titer determination was performed as described above. Additionally, an in vivo competition assay was performed in tumour-bearing mice. Therefore, 200 μg of the GD2-specific peptide and 1×10^11 pfu of the phage encoding the same peptide were co-injected intravenously in three IMR32 tumour bearing mice per experiment. Tumours were subsequently harvested and the phage titers were determined as described above.

[5] = Phage binding assay on immobilized GD3; design: species or system human; settings: 10 μg GD3 per well; 1 × 10^11 pfu phage, 1 h room temperature; Fig 1B
Protocol: as §1

[6] = Phage binding assay on immobilized GT1b; design: species or system human; settings: 10 μg GT1b per well; 1 × 10^11 pfu phage, 1 h room temperature; Fig 1B
Protocol: as §1

[7] = Phage binding assay on immobilized GD1b; design: species or system human; settings: 10 μg GD1b per well, 1 × 10^11 pfu phage, 1 h room temperature, Fig 1A, 1B
Protocol: 96-well microtiter plates (Greiner, Frickenhausen, Germany) were coated with 10 μg GD2 or 10 μg GD1b per well for one hour at room temperature. Wells were then washed 3 times with DPBS/Tween20 (0.05%), blocked with BSA (1%)/DPBS/Tween20 (0.05%) for 1 hour at room temperature, washed again and subsequently filled with H2O. Plates were stored at 8°C until use. For in vitro selection, 2 x 10^11 plaque forming units (pfu) of the unselected M13 Ph.D.-7 phage display peptide library or the phage pool of the subsequent selection rounds was incubated with DPBS/Tween20 (0.1%, 0.2%, 0,3% or 0,4%) in a GD1b coated well for 1 hour at room temperature on a shaker. The phage solution was then transferred to a well containing GD2 and incubated for 1 hour at room temperature. After washing 10 times with DPBS/Tween20 (0.1%, 0.2%, 0,3% or 0,4%), bound phages were eluted by addition of E. coli ER2738 (OD600nm 0.4–0.5) for 30 minutes at 37°C. […]
Wells were coated with GD3, GD2, GD1b, GT1b or BSA (10 μg/ well each). […] Tumours were subsequently harvested and the phage titers were determined as described above.

IMR32-induced xenografts [8] = settings: 1×10^11 pfu i.v., 10 min circulation; for phage recovery from tumour tissue: perfusion with DPBS, WHWRLPS-phage vs. control phage
Protocol: Human IMR32 tumour cells were injected subcutaneously (s.c.) in the right and left femoral region of anesthetized NMRI nude mice (1×10^7 IMR32 cells in 50 μl DPBS and 150 μl Matrigel (BD)). For PET imaging, IMR32 cells were injected s.c. in the neck fold. Imaging and all other interventions were conducted on day 14 day after tumour cell inoculation.
Of the GD2-specific phage or a control phage (GHGRLPS), 1×10^11 pfu were injected intravenously in three IMR32 tumour bearing mice per phage after an i.p. application of the anaesthetics xylazine (16 mg/kg) and ketamine (100 mg/kg). After 10 minutes, the mice were perfused with DPBS and brain, muscle, stomach, kidneys, heart, lung, spleen, liver and tumour were explanted and weighed. Tissues were homogenized in LB-medium using an Ultra-Turrax T25 homogenizer (IKA Labortechnik, Staufen, Germany). Phages were eluted by the addition of E.coli ER2738 bacteria and the phage titers were determined as described above.

IMR32-induced xenografts [9] = assay: Distribution of 111In- and 68Ga-labelled DOTA peptides in vivo (gamma counter); design: species or system NMRI nude mice
Protocol: ^111In was solved in HCl and a pH 3 was adjusted. DOTA peptides (100 μg) were diluted in the same volume of sodium acetate buffer (pH 5.0). Next, a 1:1 mixture (v/v) of the ^111In /HCl solution and the peptide solution was heated to 80°C for 10 minutes before applying it to a C18 reverse-phase cartridge (Strata™-X 33 μm Polymeric Reversed Phase, Phenomenex, Aschaffenburg, Germany). After washing twice with 5 ml water, elution of the ^111In–labelled peptide was achieved using ethanol abs. and volume was adjusted to 100 μl using isotonic NaCl solution.
^111In—labelled DOTA peptides (200–700 kBq) or ^68Ga—labelled DOTA peptides (80–400 kBq) were injected intravenously into mice bearing IMR32-induced (2 x 10^7 cells s.c.) xenografts. Organs and blood of mice were collected between 5 min and 24 h after injection and their radioactive content was quantified using a gamma counter (Automatic Gamma Counter 1480 Wizard TM 3”). The injected dose was calculated by weighing the syringe with and without the tracer. Activity concentrations were corrected for radioactive decay. To evaluate the effects of kidney protection, a mixture containing Gelofusine (80μg/ g bodyweight)/lysine (400μg/ g weight)/arginine (400μg/ g weight) was injected i.v. 5 minutes before application of the tracer. Here, organs and blood were collected 1 h after injection. To compare ^68Ga -labelled peptides with the clinically established tracer, one group of tumour bearing mice received ^124I -MIBG (100–200 kBq) by intravenous injection.

[10] = one hour after tracer injection, Fig 3C

WHWRLPS [WHWRLPS-peptide]
reduction of WHWRLPS-phage recovery from tumour tissue (IMR32-induced xenografts [1]): 84%
maximum reduction of WHWRLPS-phage binding to GD2 ([2]; in the presence of 10 μg peptide, wells pre-incubated with peptide 1 h): 82%
peptide concentration sufficient to significantly reduce phage binding to GD2 ([2]; lowest dilution of the series 10 μg to 100 pg, p < 0.05 vs. 0 μg peptide): 100 pg/mL
effect on IMR32 cell viability [3]: reduce cell viability

WHGRLPS
binding of phage to immobilized GD2 (phage output titer) [4]: impaired binding

HAIYPRH [phage 2, reference compound]
binding of phage to immobilized GD2 (phage output titer) [4]: did not bind
binding of phage to immobilized GD3 [5]: did not bind
binding of phage to immobilized GT1b [6]: did not bind
binding of phage to immobilized GD1b [7]: did not bind

GHGRLPS
binding of phage to immobilized GD2 (phage output titer) [4]: impaired binding
phage recovery from tumour tissue (IMR32-induced xenografts [8]; Fig 2C): did not accumulate in tumour tissue

N=C(N)NCc1cccc([131I])c1 [124I-MIBG, metaiodobenzylguanidine, reference compound]
accumulation in tumour tissue, 124I-MIBG vs. 68Ga-labelled peptide (IMR32-induced xenografts [9]; [10]): comparable for both tracers
activity concentration in blood, 124I-MIBG vs. 68Ga-labelled peptide (IMR32-induced xenografts [9]; [10]): higher
tissue with highest accumulation (IMR32-induced xenografts [9]; one hour after tracer injection, thyroid not blocked, Fig 3C): thyroid

WHWRLGS
binding of phage to immobilized GD2 (phage output titer) [4]: impaired binding

WHWRLPS [WHWRLPS-phage, M13 phage clone displaying the hepta-peptide WHWRLPS]
binding of phage to immobilized GD2 (phage output titer) [4]: specifically bound
binding of phage to immobilized GD2 (phage output titer) ([4]; listed as phage 7): high affinity
phage recovery from tumour tissue (IMR32-induced xenografts [8]; Fig 2C): Significantly higher amounts
organs with phage accumulation (IMR32-induced xenografts [8]; attributed to mononuclear phagocytic system): liver, the spleen and, to a lesser extent, in the lung
phage recovery from other organs (IMR32-induced xenografts [8]; compared with control phage (GHGRLPS), Fig 2C): lower than that of the control
binding of phage to immobilized GD1b ([7]; listed as phage 7): lower affinity

WHWRLPS-DOTA [68Ga-labelled WHWRLPS peptide, WHWRLPS-DOTA peptide labelled with 68Ga]
accumulation in tumour tissue, 124I-MIBG vs. 68Ga-labelled peptide (IMR32-induced xenografts [9]; mouse, in vivo): comparable for both tracers
tissue with highest accumulation (IMR32-induced xenografts [9]; mouse, in vivo): kidney
radioactive load in the kidneys with kidney protection (IMR32-induced xenografts [9]; mouse, in vivo, iv): reduced
radioactivity in the blood with kidney protection (IMR32-induced xenografts [9]; mouse, in vivo, iv): higher accumulation
tumour-specific uptake, 68Ga- vs. 111In-labelled peptide (IMR32-induced xenografts [9]; mouse, in vivo, iv): higher tumour-specific uptake
uptake across tissues in comparison to 111In-labelled peptides (IMR32-induced xenografts [9]; mouse, in vivo, iv): higher uptake across all tissues

GHWRLPS
binding of phage to immobilized GD2 (phage output titer) [4]: impaired binding

GHGRLGS
binding of phage to immobilized GD2 (phage output titer) [4]: impaired binding
